{"source": "patent US20240343828A1", "about": "“SPINK1 AS A TARGET FOR THERAPEUTIC INTERVENTION IN LUNG DISEASES” (Northwestern University, priority 2023, published 2024)", "key": {"fibroblasts [1]": {"tested_on": "fibroblasts", "test": "In vitro fibroblast gene expression with Spink1 incubation", "assay_type": "cell-based", "conditions": "different Spink1 concentrations, 24 hours", "description": "Applicant performed an in vitro experiment to further validate the functional role of SPINK1 in mediating fibroblasts and aSMA+ stromal cells. Applicant incubated fibroblasts with different concentration of recombinant mouse Spink1 protein for 24 hours and tested the gene expression level. […] However, the expression level of aSMA was elevated in response to Spink1 treatment (FIG. 23A). This implied that Spink1 could drive the differentiation of fibroblast toward aSMA+ stromal cells."}, "mouse lung [2]": {"tested_on": "mouse lung", "test": "Sircol assay of collagen content", "assay_type": "in vivo", "source_text": "To further understand the impact of Spink1 on lung fibrosis, Applicant performed the molecular experiment to mutate Spink amino acid sequence. Applicant generated two Spink1 variants (protein 2: R19Y and protein 3: R19A) to denote the ones with activity preserved (protein 2: R19Y) and activity ablation (protein 3: R19A). Applicant used these two variants, together with Spink1 wild type protein and PBS, to conduct the animal experiments using healthy mice (FIG. 15)."}, "mouse lung [3]": {"tested_on": "mouse lung", "test": "H&E staining of mouse lung", "assay_type": "in vivo", "conditions": "Spink1-treated mouse lungs", "description": "(§1) The H&E histology experiment and trichome staining assay were conducted in histology core at northwestern university."}, "mouse lung [4]": {"tested_on": "mouse lung", "test": "Trichome staining of mouse lung", "assay_type": "in vivo", "conditions": "Spink1-treated mouse lungs", "description": "as §1"}, "fibroblasts [5]": {"tested_on": "fibroblasts", "test": "Fibroblast proliferation with Spink1 incubation", "assay_type": "cell-based", "description": "FIGS. 23A-23C: In vitro experiment to validate the functional role of Spink1 in mediating stromal cell activity. Gene expression changes in fibroblasts with the incubation of different concentration of Spink1 protein (FIG. 23A). The proliferation rate of fibroblasts with the incubation of Spink1 (FIG. 23B). The proliferation rate was calculated as the difference between end point and start point, followed by the division of start point value. Zero proliferation rate indicates no proliferation is detected. The changes of aSMA gene in fibroblasts with the incubation of Spink1 and EGFR inhibitor of AG1468 (FIG. 23C).\nApplicant also tested the proliferation activity of fibroblast with the incubation of Spink1. […] Furthermore, Applicant hypothesized that the differentiation of fibroblast toward aSMA+ cells could be EGFR pathway dependent."}, "mouse": {"tested_on": "mouse", "conditions": "mice with bleomycin pre-treatment", "quoted_text": "Two sets of experiment were set up: one set with bleomycin pretreatment and the other without bleomycin pretreatment(FIG. 10). Applicant labeled as the groups as: PBS, recombinant Spink1 protein, bleomycin and the combo of bleomycin and recombinant Spink1 protein (the last two groups are the one with bleomycin pretreatment).\nFor experiment one, Applicant have four groups as illustrated in FIG. 10. Intrathecal administration was used in this study and 20 ug recombinant protein was injected each time. For the group without bleomycin pretreatment, the animals were injected every third day until they were killed at day 22. For the group with bleomycin pretreatment, the animals were pretreated with bleomycin and then the first dose of recombinant Spink1 protein was injected at day 14 after the bleomycin pretreatment. Another 4 doses were given at day 21, day 24, day 27 and day 30. The animals were killed at day 34 and the tissues were harvested and frozen/fixed for further analysis."}, "mouse lung [6]": {"tested_on": "mouse lung", "test": "scRNA-seq analysis of lung tissues from the animal experiment", "assay_type": "in vivo", "excerpt": "Using the lung tissues collected from our animal experiment, Applicant performed the scRNA-seq analysis and identified 36 different cell types within epithelial, endothelial, stromal and immune compartments (FIG. 17A).\nSince AT2s are the fibrosis driver^21,23, Applicant performed the differential gene expression between bleomycin vs combo treatment to identify the potential genes that are invoked by Spink1."}, "[7]": {"conditions": "pathway enrichment, PBS vs Spink1 treatment"}}}
{"substance": "Spink1: recombinant mouse Spink1 (Spink3) protein, homologue of human SPINK1, Serine protease inhibitor Kazal-type 1 (AKVTGKEASCHDAVAGCPRIYDPVCGTDGITYANECVLCFENRKRIEPVLIRKGGPC; UniProt P09036 24-80, looked up)", "values": [{"measurement": "expression level of Col1a1", "setting": "fibroblasts [1]", "result": "not significantly changed"}, {"measurement": "expression level of Fibronectin", "setting": "fibroblasts [1]", "result": "not significantly changed"}, {"measurement": "expression level of aSMA", "setting": "fibroblasts [1]", "result": "elevated"}, {"measurement": "collagen accumulation (Sircol)", "setting": "mouse lung [2]; healthy animals, no bleomycin pretreatment", "result": "can induce the collagen accumulation"}, {"measurement": "collagen content (Sircol)", "setting": "mouse lung [2]; mice with Spink1 treatment, 20 ug per injection", "result": "accumulative collagen content"}, {"measurement": "alveolar damage and immune cell infiltration (H&E)", "setting": "mouse lung [3]", "result": "notable alveolar damage and immune cell infiltration"}, {"measurement": "collagen deposition (trichome staining)", "setting": "mouse lung [4]", "result": "high level of collagen accumulated"}, {"measurement": "proliferation rate of fibroblast", "setting": "fibroblasts [5]; 24 hr Spink1 incubation", "result": "high proliferation rate"}, {"measurement": "proliferation rate of fibroblast", "setting": "fibroblasts [5]; 48 hr incubation", "result": "increased rate disappears"}, {"measurement": "body weight change", "setting": "mouse", "result": "induce weight loss"}, {"measurement": "gene set \"Negative regulation of fibroblast proliferation\" (GSEA)", "setting": "mouse lung [6]; AT2, combo vs bleomycin", "result": "induces the down-regulation"}, {"measurement": "phagosome maturation gene set (GSEA)", "setting": "mouse lung [6]; AT2, combo vs bleomycin", "result": "significantly down-regulated"}, {"measurement": "expression level of Cdc42", "setting": "mouse lung [6]; mouse treated with Spink1", "result": "significantly decreased expression level"}, {"measurement": "apoptosis of aSMA+ cells", "setting": "mouse lung [6]; [7]", "result": "arrested the apoptosis of aSMA+ cells"}, {"measurement": "wound healing pathway in fibroblasts", "setting": "mouse lung [6]; [7]", "result": "downregulated"}, {"measurement": "expression level of Ftl1", "setting": "mouse lung [6]; regardless of the bleomycin pretreatment", "result": "seems to vanish"}]}
{"substance": "bleomycin [reference compound]", "values": [{"measurement": "Cthrc1+ fibroblasts in stromal compartment", "setting": "mouse lung [6]; mouse lung scRNA-seq", "result": "induces the overproduction of Cthrc1^+ fibroblasts"}]}
{"substance": "protein 3: R19A: Spink1 variant R19A with activity ablation (AKVTGKEASCHDAVAGCPAIYDPVCGTDGITYANECVLCFENRKRIEPVLIRKGGPC; UniProt P09036 24-80, looked up, variant R19A)", "values": [{"measurement": "collagen accumulation (Sircol), Spink1 variants", "setting": "mouse lung [2]; healthy mice, 6 doses, compared with wild type Spink1 and PBS", "result": "fails to induce collagen accumulation"}]}
